Measurements reported in the NIST ThermoML archive (doi:10.1016/j.fluid.2012.09.007).

Experiment: xn = mol fraction of the nth substance listed
Conditions: 101 kPa, Liquid, Vibrating tube method

CCC(C)(C)OC [2-methoxy-2-methylbutane] + c1ccccc1
Conditions	mass density [kg/m3]
298.15 K, x2 = 0	765.79
298.15 K, x2 = 0.06414	770.46
298.15 K, x2 = 0.1353	775.9
298.15 K, x2 = 0.2019	781.23
298.15 K, x2 = 0.2693	786.88
298.15 K, x2 = 0.3352	792.67
298.15 K, x2 = 0.4021	798.87
298.15 K, x2 = 0.4653	805.02
298.15 K, x2 = 0.5342	812.08
298.15 K, x2 = 0.6022	819.46
298.15 K, x2 = 0.6671	826.93
298.15 K, x2 = 0.7367	835.44
298.15 K, x2 = 0.7973	843.32
298.15 K, x2 = 0.8665	852.89
298.15 K, x2 = 0.9336	862.89
308.15 K, x2 = 0	756.23
308.15 K, x2 = 0.06701	761.09
308.15 K, x2 = 0.1338	766.17
308.15 K, x2 = 0.2009	771.51
308.15 K, x2 = 0.2672	777.02
308.15 K, x2 = 0.3336	782.8
308.15 K, x2 = 0.4024	789.11
308.15 K, x2 = 0.4715	795.77
308.15 K, x2 = 0.5344	802.18
308.15 K, x2 = 0.6008	809.31
308.15 K, x2 = 0.6685	816.98
308.15 K, x2 = 0.7345	824.97
308.15 K, x2 = 0.7995	833.32
308.15 K, x2 = 0.8625	841.93
308.15 K, x2 = 0.9344	852.47
318.15 K, x2 = 0	746.71
318.15 K, x2 = 0.06757	751.58
318.15 K, x2 = 0.1346	756.63
318.15 K, x2 = 0.2014	761.91
318.15 K, x2 = 0.269	767.5
318.15 K, x2 = 0.3371	773.39
318.15 K, x2 = 0.4031	779.4
318.15 K, x2 = 0.4661	785.42
318.15 K, x2 = 0.5339	792.26
318.15 K, x2 = 0.6012	799.41
318.15 K, x2 = 0.6679	806.93
318.15 K, x2 = 0.7346	814.9
318.15 K, x2 = 0.7994	823.13
318.15 K, x2 = 0.8645	831.93
318.15 K, x2 = 0.9333	841.85

CC(C)CC(C)(C)C [2,2,4-trimethylpentane] + c1ccccc1
Conditions	mass density [kg/m3]
298.15 K, x2 = 0	687.69
298.15 K, x2 = 0.06106	693.48
298.15 K, x2 = 0.1418	701.74
298.15 K, x2 = 0.2015	708.37
298.15 K, x2 = 0.2685	716.35
298.15 K, x2 = 0.3382	725.38
298.15 K, x2 = 0.399	733.9
298.15 K, x2 = 0.4639	743.77
298.15 K, x2 = 0.5179	752.66
298.15 K, x2 = 0.5986	767.18
298.15 K, x2 = 0.6562	778.61
298.15 K, x2 = 0.7257	793.77
298.15 K, x2 = 0.7993	811.66
298.15 K, x2 = 0.871	831.31
298.15 K, x2 = 0.9483	855.37
308.15 K, x2 = 0	679.5
308.15 K, x2 = 0.07837	686.91
308.15 K, x2 = 0.139	693.09
308.15 K, x2 = 0.2112	701.03
308.15 K, x2 = 0.2701	707.99
308.15 K, x2 = 0.3244	714.88
308.15 K, x2 = 0.3912	723.99
308.15 K, x2 = 0.4607	734.35
308.15 K, x2 = 0.5319	745.93
308.15 K, x2 = 0.6019	758.53
308.15 K, x2 = 0.6669	771.38
308.15 K, x2 = 0.7335	785.91
308.15 K, x2 = 0.7944	800.56
308.15 K, x2 = 0.8662	819.8
308.15 K, x2 = 0.9302	839.08
318.15 K, x2 = 0	671.34
318.15 K, x2 = 0.07013	677.83
318.15 K, x2 = 0.1336	684.16
318.15 K, x2 = 0.2025	691.56
318.15 K, x2 = 0.272	699.64
318.15 K, x2 = 0.3457	708.99
318.15 K, x2 = 0.4011	716.6
318.15 K, x2 = 0.466	726.21
318.15 K, x2 = 0.535	737.39
318.15 K, x2 = 0.5941	747.85
318.15 K, x2 = 0.6592	760.41
318.15 K, x2 = 0.7319	775.94
318.15 K, x2 = 0.7981	791.66
318.15 K, x2 = 0.8656	809.56
318.15 K, x2 = 0.9321	829.34

c1ccccc1 [benzene] + CC(C)CC(C)(C)C
x1 = 1
Conditions	mass density [kg/m3]
298.15 K	873.52
308.15 K	862.84
318.15 K	852.18

CC(C)CC(C)(C)C [2,2,4-trimethylpentane] + CCC(C)(C)OC
x2 = 0
Conditions	mass density [kg/m3]
298.15 K	687.68
308.15 K	679.48
318.15 K	671.34

CCC(C)(C)OC [2-methoxy-2-methylbutane] + CC(C)CC(C)(C)C
Conditions	mass density [kg/m3]
298.15 K, x1 = 0.06668	691.73
298.15 K, x1 = 0.1334	695.93
298.15 K, x1 = 0.2065	700.7
298.15 K, x1 = 0.2712	705.05
298.15 K, x1 = 0.3376	709.68
298.15 K, x1 = 0.3977	713.99
298.15 K, x1 = 0.4666	719.11
298.15 K, x1 = 0.527	723.75
298.15 K, x1 = 0.5952	729.17
298.15 K, x1 = 0.6668	735.06
298.15 K, x1 = 0.7314	740.58
298.15 K, x1 = 0.7975	746.43
298.15 K, x1 = 0.8616	752.31
298.15 K, x1 = 0.9325	759.06
298.15 K, x1 = 1	765.77
308.15 K, x1 = 0.06672	683.48
308.15 K, x1 = 0.1383	687.9
308.15 K, x1 = 0.2056	692.2
308.15 K, x1 = 0.2684	696.36
308.15 K, x1 = 0.3406	701.28
308.15 K, x1 = 0.401	705.55
308.15 K, x1 = 0.4585	709.75
308.15 K, x1 = 0.5291	715.06
308.15 K, x1 = 0.5953	720.24
308.15 K, x1 = 0.6632	725.74
308.15 K, x1 = 0.7339	731.67
308.15 K, x1 = 0.7946	736.96
308.15 K, x1 = 0.8646	743.27
308.15 K, x1 = 0.9319	749.58
308.15 K, x1 = 1	756.19
318.15 K, x1 = 0.06682	675.24
318.15 K, x1 = 0.1368	679.49
318.15 K, x1 = 0.1974	683.27
318.15 K, x1 = 0.2673	687.79
318.15 K, x1 = 0.3375	692.5
318.15 K, x1 = 0.401	696.91
318.15 K, x1 = 0.4676	701.69
318.15 K, x1 = 0.5324	706.5
318.15 K, x1 = 0.5984	711.56
318.15 K, x1 = 0.6593	716.41
318.15 K, x1 = 0.7309	722.32
318.15 K, x1 = 0.7982	728.08
318.15 K, x1 = 0.8669	734.18
318.15 K, x1 = 0.932	740.18
318.15 K, x1 = 1	746.69

c1ccccc1 [benzene] + CCC(C)(C)OC
x1 = 1
Conditions	mass density [kg/m3]
298.15 K	873.53
308.15 K	862.85
318.15 K	852.18
